Measurements reported in ChEMBL document CHEMBL1275274, “Direct renin inhibitors as a new therapy for hypertension” (J Med Chem, 2010).
Substitutions are numbered along the chain they refer to. In brackets after ≈: the same amount, converted by molar mass. Blank lines part the entries; values can stand above or below the compound they belong to.

How the values were obtained:
Renin [1] = molecular target: T1, Renin (Homo sapiens, UniProt P00797); format: cell-free, Plasma
T1 sequence (P00797 whole entry): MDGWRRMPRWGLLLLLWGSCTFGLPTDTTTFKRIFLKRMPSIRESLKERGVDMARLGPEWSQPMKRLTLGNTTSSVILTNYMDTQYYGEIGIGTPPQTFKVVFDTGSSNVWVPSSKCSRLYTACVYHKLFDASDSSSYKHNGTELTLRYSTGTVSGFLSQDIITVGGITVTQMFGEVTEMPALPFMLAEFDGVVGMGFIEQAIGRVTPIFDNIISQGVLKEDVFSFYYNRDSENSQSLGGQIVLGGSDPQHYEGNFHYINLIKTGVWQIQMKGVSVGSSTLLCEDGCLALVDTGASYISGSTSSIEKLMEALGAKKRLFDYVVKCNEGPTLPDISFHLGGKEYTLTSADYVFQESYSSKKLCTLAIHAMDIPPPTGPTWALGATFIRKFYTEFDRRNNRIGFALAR

[2] = Oral bioavailability in Wistar rat; format: ADME, organism-based; details: in vivo
[3] = Tmax in Wistar rat; format: ADME, organism-based; details: in vivo
Renin [4] = molecular target: T1, Renin; experiment: Inhibition of human recombinant renin in buffer
[5] = Elimination half life in Wistar rat; format: ADME, organism-based; details: in vivo, read-out: beta t1/2 (converted)
[6] = Distribution coefficient, log D of the compound; format: physicochemical; details: octanol/water
[7] = Oral bioavailability in rat; format: ADME, organism-based; details: in vivo
Renin [8] = molecular target: T1, Renin; experiment: Binding affinity to human recombinant renin by isothermal titration calorimetry
Renin [9] = molecular target: T1, Renin; experiment: Inhibition of renin in human plasma; format: cell-free
Renin [10] = molecular target: T2, Renin (Macaca mulatta, UniProt Q6DLW5); experiment: Inhibition of renin in monkey plasma
T2 sequence (Q6DLW5 whole entry): T1 sequence (P00797 whole entry) with T68A, I214L, S235A, Q270P, R406H

Renin [11] = molecular target: T1, Renin; experiment: Inhibition of renin in pH 7.4 buffer
[12] = Aqueous solubility of the compound at pH 6.6 buffer; format: physicochemical
[13] = (§1) Oral bioavailability in dog; format: ADME, organism-based, Canis lupus familiaris; details: in vivo
[14] = Partition coefficient, log P of the compound at pH 7.4; format: physicochemical; details: octanol/water
Callithrix jacchus = experiment: Oral bioavailability in marmoset; format: ADME, organism-based; details: in vivo
Renin-1 = molecular target: T3, Renin-1 (Mus musculus, UniProt P06281); experiment: Inhibition of mouse renin
T3 sequence (P06281 whole entry): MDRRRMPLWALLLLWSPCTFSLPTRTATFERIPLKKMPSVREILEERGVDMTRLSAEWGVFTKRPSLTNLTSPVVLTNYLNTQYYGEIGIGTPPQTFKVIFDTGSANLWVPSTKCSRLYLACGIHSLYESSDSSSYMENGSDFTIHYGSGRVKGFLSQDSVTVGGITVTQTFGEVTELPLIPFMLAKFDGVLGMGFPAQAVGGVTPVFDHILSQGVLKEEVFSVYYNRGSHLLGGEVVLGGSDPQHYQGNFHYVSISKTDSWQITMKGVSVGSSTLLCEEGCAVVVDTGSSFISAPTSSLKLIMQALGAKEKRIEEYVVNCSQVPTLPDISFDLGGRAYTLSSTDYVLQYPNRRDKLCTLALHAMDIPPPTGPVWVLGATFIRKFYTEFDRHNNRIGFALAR

Canis familiaris = experiment: as §1; format: ADME, organism-based, Canis lupus familiaris; details: in vivo
[15] = Competitive inhibition of pig pepsin at pH 5; parameters: species or system Sus scrofa
[16] = molecular target: Voltage-gated inwardly rectifying potassium channel KCNH2 (Homo sapiens, UniProt Q12809); experiment: Inhibition of human ERG
Cytochrome P450 3A4 = Cytochrome P450 3A4 (Homo sapiens, UniProt P08684); experiment: Inhibition of CYP3A4; format: ADME
Cathepsin E = molecular target: T4, Cathepsin E (Homo sapiens, UniProt P14091); experiment: Inhibition of cathepsin E
T4 sequence (P14091 whole entry): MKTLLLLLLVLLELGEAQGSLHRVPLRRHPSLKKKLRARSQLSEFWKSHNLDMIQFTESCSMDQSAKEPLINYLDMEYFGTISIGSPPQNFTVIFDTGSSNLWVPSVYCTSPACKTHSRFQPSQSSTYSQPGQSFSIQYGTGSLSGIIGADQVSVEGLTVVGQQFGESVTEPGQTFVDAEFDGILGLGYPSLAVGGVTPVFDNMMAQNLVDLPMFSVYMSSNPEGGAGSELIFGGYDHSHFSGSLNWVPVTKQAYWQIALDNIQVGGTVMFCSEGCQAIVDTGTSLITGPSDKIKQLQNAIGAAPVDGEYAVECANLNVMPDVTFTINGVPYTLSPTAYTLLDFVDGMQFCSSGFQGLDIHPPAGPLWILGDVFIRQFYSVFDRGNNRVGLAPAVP

Cathepsin D = Cathepsin D (Homo sapiens, UniProt P07339); experiment: Inhibition of cathepsin D
[17] = Oral bioavailability in rhesus monkey; format: ADME, organism-based, Macaca mulatta; details: in vivo
[18] = Elimination half life in dog; format: ADME, organism-based, Canis lupus familiaris; details: in vivo, read-out: beta t1/2 (converted)
[19] = Elimination half life in rhesus monkey; format: ADME, organism-based, Macaca mulatta; details: in vivo, read-out: beta t1/2 (converted)
[20] = Oral bioavailability in monkey; format: ADME, organism-based, Macaca mulatta; details: rhesus monkey, in vivo
[21] = Inhibition of Cytochrome P450; format: ADME

Voltage-gated inwardly rectifying potassium channel KCNH2, sequence (Q12809 whole entry): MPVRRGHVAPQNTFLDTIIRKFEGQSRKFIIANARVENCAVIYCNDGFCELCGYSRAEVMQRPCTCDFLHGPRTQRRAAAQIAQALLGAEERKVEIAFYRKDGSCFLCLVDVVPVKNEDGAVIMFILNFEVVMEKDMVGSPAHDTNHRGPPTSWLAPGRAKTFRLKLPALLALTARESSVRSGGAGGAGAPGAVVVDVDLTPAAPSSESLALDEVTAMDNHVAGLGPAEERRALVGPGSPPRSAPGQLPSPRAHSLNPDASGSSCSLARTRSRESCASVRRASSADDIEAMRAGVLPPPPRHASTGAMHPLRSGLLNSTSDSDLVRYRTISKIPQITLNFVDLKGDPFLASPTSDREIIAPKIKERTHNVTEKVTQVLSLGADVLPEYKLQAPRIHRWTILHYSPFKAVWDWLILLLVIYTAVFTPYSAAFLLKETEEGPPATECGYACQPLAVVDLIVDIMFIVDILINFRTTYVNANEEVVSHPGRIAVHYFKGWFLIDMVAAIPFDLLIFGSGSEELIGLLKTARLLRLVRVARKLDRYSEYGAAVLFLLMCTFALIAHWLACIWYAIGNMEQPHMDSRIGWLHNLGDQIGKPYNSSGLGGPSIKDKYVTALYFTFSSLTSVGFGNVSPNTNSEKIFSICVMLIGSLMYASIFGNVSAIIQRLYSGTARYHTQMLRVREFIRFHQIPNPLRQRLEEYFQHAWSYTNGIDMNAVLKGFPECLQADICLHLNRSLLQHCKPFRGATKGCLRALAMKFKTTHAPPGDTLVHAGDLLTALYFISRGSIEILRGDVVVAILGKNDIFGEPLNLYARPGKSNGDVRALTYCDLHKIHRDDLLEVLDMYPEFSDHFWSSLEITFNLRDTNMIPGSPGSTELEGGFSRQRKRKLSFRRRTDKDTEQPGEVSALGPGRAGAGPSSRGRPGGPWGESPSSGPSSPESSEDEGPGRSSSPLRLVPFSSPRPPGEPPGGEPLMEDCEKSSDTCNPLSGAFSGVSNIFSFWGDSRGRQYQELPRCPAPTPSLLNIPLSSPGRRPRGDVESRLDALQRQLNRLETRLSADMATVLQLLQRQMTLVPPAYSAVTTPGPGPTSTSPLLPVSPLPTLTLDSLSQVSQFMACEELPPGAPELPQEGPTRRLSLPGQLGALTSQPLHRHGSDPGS
Cytochrome P450 3A4, sequence (P08684 whole entry): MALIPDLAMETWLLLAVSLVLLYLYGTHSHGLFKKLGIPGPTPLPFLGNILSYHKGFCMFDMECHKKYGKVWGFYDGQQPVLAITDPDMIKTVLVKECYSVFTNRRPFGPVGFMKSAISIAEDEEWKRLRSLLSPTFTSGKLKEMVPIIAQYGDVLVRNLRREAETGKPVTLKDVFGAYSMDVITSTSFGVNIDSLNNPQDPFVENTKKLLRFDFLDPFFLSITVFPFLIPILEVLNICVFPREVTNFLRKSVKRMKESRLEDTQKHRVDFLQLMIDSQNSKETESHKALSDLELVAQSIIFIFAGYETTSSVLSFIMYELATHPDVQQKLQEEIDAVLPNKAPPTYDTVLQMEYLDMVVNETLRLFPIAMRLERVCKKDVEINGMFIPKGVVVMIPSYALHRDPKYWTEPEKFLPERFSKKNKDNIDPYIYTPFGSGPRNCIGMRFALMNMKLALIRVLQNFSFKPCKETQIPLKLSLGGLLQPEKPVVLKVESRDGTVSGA
Cathepsin D, sequence (P07339 65-162 limits assumed): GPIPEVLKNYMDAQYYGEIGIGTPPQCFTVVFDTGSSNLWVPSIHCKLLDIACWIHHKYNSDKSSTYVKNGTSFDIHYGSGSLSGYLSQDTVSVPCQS
Cathepsin D, sequence (P07339 169-412 limits assumed): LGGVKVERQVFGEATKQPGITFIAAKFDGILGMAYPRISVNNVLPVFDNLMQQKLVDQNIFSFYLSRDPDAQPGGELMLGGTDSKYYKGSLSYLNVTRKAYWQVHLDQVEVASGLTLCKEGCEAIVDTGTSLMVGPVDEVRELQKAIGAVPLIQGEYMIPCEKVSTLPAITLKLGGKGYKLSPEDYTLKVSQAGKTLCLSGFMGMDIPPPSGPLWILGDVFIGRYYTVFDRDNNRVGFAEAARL

SMILES: Cc1cc(Cl)c(OCCOc2ccc(C3=C(C(=O)N(Cc4cccc(C)c4C)C4CC4)[C@H]4CNC[C@@H](C3)N4)cc2)c(Cl)c1
IC50 (Renin [1]): 19 nM
bioavailability [2]: 24%
Tmax [3]: 10 h
IC50 (Renin [4]): 0.2 nM
half-life [5]: 6.6 h
logD [6]: > 4.9
bioavailability [7]: 24%

IC50 (Renin [4]): 0.8 nM
SMILES: CCCCNC(=O)[C@H](C)C[C@H](O)[C@@H](N)CC(C)(C)CC(=O)N1C[C@H](C(=O)OC)Cc2ccccc21

Kd (Renin [8]): 79 nM
SMILES: CCc1nc(N)nc(NCCNS(=O)(=O)c2ccc3ccccc3c2)c1-c1ccc2c(c1)N(CCCOC)C(=O)C(C)(C)O2

IC50 (Renin [4]): 2 nM
SMILES: COC[C@@H]1CNC[C@H](OCc2ccc3ccccc3c2)[C@H]1c1ccc(COC(=O)c2ccccc2Cl)cc1

IC50 (Renin [4]): 5000 nM
SMILES: Brc1ccc([C@H]2CCNC[C@@H]2OCc2ccc3ccccc3c2)cc1

IC50 (Renin [9]): 20 nM
SMILES: CCCCNC(=O)[C@@H](NC[C@@H]1CCCCOc2ccccc2C[C@H](NC(=O)OC(C)(C)C)C(=O)N[C@@H](Cc2cnc[nH]2)C(=O)N1)C(C)C

IC50 (Renin [10]): 11 nM
SMILES: C=CC[C@H](NC(=O)CNS(=O)(=O)N1CCOCC1)C(=O)N[C@@H](CC1CC=C(c2cccc3ccccc23)CC1)[C@@H](O)[C@@H](O)CC(C)C (stereo not given in full)

IC50 (Renin [1]): 0.3 nM
SMILES: COCCCCOc1ccccc1C(=O)NC[C@@H](C[C@H](N)[C@@H](O)C[C@H](C(=O)NCCC1CCN(C(C)=O)CC1)C(C)C)C(C)C

IC50 (Renin [11]): 4 nM
SMILES: CCC(C)C[C@H](NC(=O)[C@@H](NC[C@@H](O)[C@@H](N)CCCc1ccc(-c2ccccc2)cc1)C(C)C)C(=O)NCCCc1ccccc1 (stereo not given in full)

IC50 (Renin [1]): 18 nM
IC50 (Renin [4]): 1.4 nM
SMILES: COc1ccccc1COCCCOc1ccc(C2=C(C(=O)N(Cc3ccnc(OC)c3C)C3CC3)[C@H]3CNC[C@@H](C2)N3)cc1

solubility [12]: 124 µg/mL (≈ 206 µM)
IC50 (Renin [1]): 0.6 nM
logD [6]: 3
SMILES: COc1ccccc1COCCCOc1ccc([C@H]2CCNC[C@@H]2OCc2ccc3c(c2)N(CCNC(C)=O)CCC3)cc1

solubility [12]: 24 µg/mL (≈ 38 µM)
IC50 (Renin [1]): 2.2 nM
IC50 (Renin [4]): 0.06 nM
bioavailability [13]: 27%
logD [14]: 3.7
SMILES: COc1ccccc1COCCCOc1ccc([C@@H]2[C@@H](OCc3cc(OC)c4ccccc4c3)CNC[C@H]2OC[C@H](O)CO)cc1

IC50 (Renin [4]): 0.5 nM
SMILES: COc1ccccc1COCCCOc1ccc(N2CCNC[C@@H]2COC2=CC3C(C=C2)CCCN3CCNC(C)=O)cc1 (stereo not given in full)

IC50 (Renin [4]): 0.29 nM
SMILES: COc1ccccc1COCCCOc1ccc(N2C(=O)CNC[C@@H]2COC2=CC3C(C=C2)CCCN3CCNC(C)=O)cc1 (stereo not given in full)

IC50 (Renin [4]): 0.68 nM
SMILES: COCCCN1C(=O)COC2C=CC(OC[C@H]3CNCC(=O)N3c3ccc(OCCCOCc4ccccc4OC)cc3)=CC21 (stereo not given in full)

IC50 (Renin [4]): 0.18 nM
SMILES: COCCCN1C(=O)COC2C=CC(SC[C@H]3CNCC(=O)N3c3ccc(OCCCOCc4ccccc4OC)cc3)=CC21 (stereo not given in full)

Kd (Renin [8]): 270 nM
SMILES: CCc1nc(N)nc(NCCc2ccccc2NC(=O)c2ccc(N)c(OC)c2)c1-c1ccc2c(c1)N(CCCOC)C(=O)C(C)(C)O2

IC50 (Renin [4]): 0.62 nM
SMILES: COc1ccccc1COCCCOc1ccc(C2=C(C(=O)N(Cc3cccc(OC)c3C)C3CC3)[C@H]3CNC[C@@H](C2)N3)cc1

IC50 (Renin [1]): 4 nM
SMILES: CCCCNC(=O)[C@H](C)C[C@H](O)[C@@H](N)C[C@@H](CNC(=O)c1cn(CC)c2ccccc12)C(C)C

IC50 (Renin [4]): 11 nM
SMILES: CC(C)C[C@H](O)[C@H](O)[C@H](CC1CCCCC1)NC(=O)[C@H](Cc1cnc[nH]1)NC(=O)C[C@H](C)c1ccccc1

IC50 (Renin [4]): 39 nM
SMILES: COc1cccc(OCCCc2cccnc2)c1C(=O)N[C@@H](CC1CCCCC1)[C@@H](O)[C@@H](O)CC(C)C

SMILES: CCCCNC(=O)[C@H](C)C[C@H](O)[C@@H](N)C[C@H](C)COC(=O)c1cn(Cc2ccccc2)c2ccccc12
IC50 (Renin [4]): 1 nM

IC50 (Renin [1]): 447 nM
bioavailability [7]: 36%
SMILES: CNC[C@H](CC1CCCCC1)NC(=O)N1CCC[C@@H]([C@@H](OCCCOC)c2ccccc2)C1

IC50 (Renin [4]): 11 nM
SMILES: CC[C@H]1CC[C@](O)(CCc2ccccc2)C[C@@H]1C(=O)N[C@@H](CC1CCCCC1)[C@@H](O)[C@@H](O)CC(C)C

F (Callithrix jacchus): 16%
IC50 (Renin-1): 4.5 nM
F (Canis familiaris): 32%
SMILES: COCCCOc1cc(C[C@@H](C[C@H](N)[C@@H](O)C[C@H](C(=O)NCC(C)(C)C(N)=O)C(C)C)C(C)C)ccc1OC

IC50 [15]: 1500 nM
IC50 (Renin [4]): 25000 nM
SMILES: COc1ccc(CO[C@H]2CNCC[C@@H]2c2ccc(Cl)cc2)cc1

solubility [12]: 3 µg/mL (≈ 5.81 µM)
IC50 (Renin [1]): 31 nM
IC50 (Renin [4]): 0.21 nM
logD [6]: 5.6
SMILES: COc1ccccc1COCCCOc1ccc([C@H]2CCNC[C@@H]2OCc2ccc3c(c2)NCCC3)cc1

solubility [12]: 3 µg/mL (≈ 4.65 µM)
IC50 (Renin [1]): 8.9 nM
bioavailability [13]: 6%
logD [14]: 5.7
SMILES: COC[C@@H](O)CO[C@@H]1CNC[C@H](OCc2cc(OC)c3ccccc3c2)[C@H]1c1ccc(OCCCOCc2ccccc2OC)cc1

bioavailability [7]: 10%
SMILES: CCc1nc(N)nc(N)c1-c1ccc2c(c1)N(CCNC(C)=O)C(=O)[C@](C)(c1ccccc1)O2

solubility [12]: > 1000 µg/mL
bioavailability [7]: 13%
SMILES: CNC[C@H](CC1CCCCC1)NC(=O)N1CCC[C@@H]([C@@](O)(CCCCOC)c2cccc(Cl)c2)C1
IC50 [16]: > 30000 nM

SMILES: O=C(C1=C(c2ccc(CCCOc3c(F)ccc(F)c3Cl)cc2)C[C@@H]2CNC[C@H]1N2)N(Cc1cccc(Cl)c1Cl)C1CC1
IC50 (Cytochrome P450 3A4): > 10000 nM
IC50 (Cathepsin E): 8100 nM
IC50 (Cathepsin D): 2700 nM
bioavailability [17]: 9%
half-life [18]: 10 h
logD [6]: > 4.6
half-life [19]: 10 h
bioavailability [13]: 36%
bioavailability [20]: 9%

IC50 (Renin [4]): 12 nM
SMILES: COc1ccccc1COCCCOc1ccc(N2C(=O)CNC[C@@H]2COCc2cccnc2)cc1

IC50 (Renin [1]): 0.8 nM
bioavailability [7]: 9%
SMILES: CNC[C@H](CC1CCCCC1)NC(=O)N1CCC[C@@H]([C@@H](OCCNC(=O)OC)c2cccc(Cl)c2)C1

bioavailability [7]: 44%
IC50 [21]: > 30000 nM
SMILES: CCc1nc(N)nc(N)c1-c1ccc2c(c1)N(CCCO)C(=O)C(C)(c1ccccc1)O2 (racemic)

IC50 (Renin [1]): < 10 nM
SMILES: CN[C@H](CNC(=O)N1CCC[C@@H]([C@@H](OCCNC(=O)OC)c2cccc(Cl)c2)C1)C[C@H]1CCCOC1 [VTP-27999]
